{"source": "patent US20260130885A1", "about": "“ANTIMICROBIAL COMPOSITIONS, PHARMACEUTICAL COMPOSITIONS AND USE THEREOF” (priority 2022, published 2026)", "key": {"[1]": {"assay": "Antiproliferation assay (MTT)", "assay_type": "cell-based", "details": "human, read-out: CC50 of SC5005", "from_the_text": "The murine macrophage cell line RAW264.7 (BCRC) and human cervical epithelioid carcinoma cell line HeLa (BCRC) were maintained in Dulbecco's modified Eagle's medium (DMEM; Gibco-BRL) supplemented with 10% heat-inactivated FBS (Gibco-BRL). The human embryonic kidney cell line HEK-293 (BCRC) and the immortalized nontumorigenic keratinocyte cell line HaCaT (obtained from Dr. Yung-Chiy Chang, National Taiwan University, Taiwan) were maintained in Roswell Park Memorial Institute (RPMI; Gibco-BRL) medium supplemented with 10% heat-inactivated FBS. Cells were cultured in T-75 flasks at 37° C. in a 5% CO2 atmosphere.\nThe effects of SC5005 and DHA on the viability of mammalian cells were assessed using a 3-(4,5-dimethylthiazol-2-yl)-2,5-diphenyl-2H-tetrazolium bromide (MTT) assay in six replicates per treatment group. Briefly, cells were seeded into 96-well, flat-bottomed plates at 10^4 cells/well, cultured for 24 hours, and then exposed to SC5005 at concentrations ranging from 5-30 mg/L or the combination of SC5005 with designated concentrations of DHA for 24 hours. Controls were treated with DMSO and ethanol vehicles at concentrations equal to those for drug-treated cells. At the end of treatments, the medium was replaced with 0.5 g/L MTT-containing culture medium, and the cells were incubated in a CO2 incubator at 37° C. for an additional 1.5 hours. Supernatants were removed from the wells, and the reduced MTT dye was solubilized in DMSO followed by measuring the absorbance at 570 nm of each well using a VersaMax microplate reader (Molecular Devices, USA)."}, "[2]": {"tested_on": "antibiotic-resistant Staphylococcus aureus", "assay": "MIC against all strains of Table 4", "assay_type": "cell-based", "details": "agent alone, all the bacterial strains under the examination", "experimental": "(§1) The antimicrobial activity was based on MIC and MBC; MIC is the minimum inhibitory concentration and MBC is the minimum bactericidal concentration. The MIC of individual test agents against MRSA USA300 strains was determined using the broth microdilution method according to CLSI guidelines. Briefly, overnight bacterial cultures in LB medium were diluted 1:50 in fresh LB medium and incubated at 37° C. until reaching an OD600 of 0.5 to 0.6. Bacterial suspensions were diluted to a final concentration of 5×10^5 cfu/mL in fresh CAMHB and then exposed to each test agent at increasing doses in triplicate in 96-well plates for 24 hours at 37° C. The MIC of each agent was defined as the lowest concentration without visible bacterial growth. […] The lowest broth dilution that had no viable bacteria was considered the MBC.\nThen, the combination effect was measured by calculating their corresponding fractional inhibitory concentration index (FICI) with the equation ΣFIC (FICi)=FICA+FICB=(CombA/MICA)+(CombB/MICB), where MICA and MICB are the MICs of drugs A and B alone, respectively, and CombA and CombB are the concentrations of drugs A and B in combination, respectively. […]\nThe antibacterial activity of the SC5005-DHA composition against a series of antibiotic-resistant Staphylococcus aureus was analyzed, and the results are shown in Table 4."}, "[3]": {"tested_on": "S. aureus NCTC8325", "assay": "Antibacterial activity assay (MIC, broth microdilution)", "assay_type": "cell-based, Staphylococcus aureus", "details": "for MIC: Staphylococcus aureus"}, "[4]": {"tested_on": "MRSA USA300", "assay": "Antibacterial activity assay (MIC by broth microdilution, MBC by subculture)", "assay_type": "cell-based, Staphylococcus aureus", "experimental": "as §1\nThen, the combination effect was measured by calculating their corresponding fractional inhibitory concentration index (FICI) with the equation ΣFIC (FICi)=FICA+FICB=(CombA/MICA)+(CombB/MICB), where MICA and MICB are the MICs of drugs A and B alone, respectively, and CombA and CombB are the concentrations of drugs A and B in combination, respectively. […] was defined as an FICI≤0.5, no interaction was defined as an FICI>0.5-4.0, and antagonism was defined as an FICI>4."}, "[5]": {"tested_on": "MRSA ATCC43300", "assay": "Antibacterial activity assay (MIC, broth microdilution)", "assay_type": "cell-based, Staphylococcus aureus", "details": "for MIC: Staphylococcus aureus"}, "[6]": {"tested_on": "S. aureus DAP-NS", "assay": "Antibacterial activity assay (MIC, broth microdilution)", "assay_type": "cell-based, Staphylococcus aureus", "details": "for MIC: Staphylococcus aureus"}, "[7]": {"tested_on": "VRSA SJC1200", "assay": "Antibacterial activity assay (MIC, broth microdilution)", "assay_type": "cell-based, Staphylococcus aureus", "details": "for MIC: Staphylococcus aureus, VRSA"}, "[8]": {"tested_on": "MRSA SCCmec VT", "assay": "Antibacterial activity assay (MIC, broth microdilution)", "assay_type": "cell-based, Staphylococcus aureus", "details": "for MIC: Staphylococcus aureus, MRSA"}, "[9]": {"tested_on": "MRSA ATCC33591", "assay": "Antibacterial activity assay (MIC, broth microdilution)", "assay_type": "cell-based, Staphylococcus aureus", "details": "for MIC: Staphylococcus aureus"}, "[10]": {"tested_on": "MRSA USA300 persister cells", "assay": "Persister killing assay", "assay_type": "cell-based, Staphylococcus aureus", "details": "SC5005 16×MIC, 4 mg/L; FIG. 1", "experimental": "(§2) The number of viable bacteria in broth after each exposure period was enumerated by a cfu assay and expressed as cfu/mL; the data shown are the mean±SD (standard deviation) of independent experiments. […] The number of viable bacteria in the broth after each exposure period was calculated by a cfu assay (cfu/mL); the data are shown as the mean±SD of three independent experiments (n=3 for each group). Since the standard deviation of each point is very small, the error line is not shown in each graph. The horizontal dashed line in the upper left graph and the upper right graph represents […] of the bacterial cells killed. In addition, the blank controls in FIG. 1 are shown as filled diamonds.\n(§3) Bacteria were collected by centrifugation at 4000×g for 10 min at 4° C., washed with ice-cold PBS, and suspended in PBS with test agents. Controls received DMSO and ethanol vehicles at concentrations equal to those for drug-treated bacteria. At the designated times, the number of viable bacteria was assessed by serial dilution of a 100 μL aliquot bacterial suspension in PBS and then spread onto LB agar plates. After incubation at 37° C. for 18-24 hours, the number of colonies was counted and expressed as cfu/mL."}, "[11]": {"tested_on": "S. aureus NCTC8325 persister cells", "assay": "Persister killing assay", "assay_type": "cell-based, Staphylococcus aureus", "details": "SC5005 16×MIC, 4 mg/L; FIG. 1", "experimental": "as §2, §3"}}, "note": "Where two headings read alike, the source gives them in different places."}
{"smiles": "O=C(Nc1ccc(Cl)c(C(F)(F)F)c1)C(CCCl)C(=O)Nc1ccc(Cl)c(C(F)(F)F)c1", "note": "[SC5005]", "values": [{"measurement": "CC50 at 24 h", "setting": "[1]; HEK-293 cells, DHA 0 mg/L", "result": "14100 ± 1400", "unit": "ng/mL"}, {"measurement": "CC50 at 24 h", "setting": "[1]; HEK-293 cells, DHA 4 mg/L", "result": "15600 ± 600", "unit": "ng/mL"}, {"measurement": "CC50 at 24 h", "setting": "[1]; HEK-293 cells, DHA 8 mg/L", "result": "14900 ± 1600", "unit": "ng/mL"}, {"measurement": "CC50 at 24 h", "setting": "[1]; HEK-293 cells, DHA 16 mg/L", "result": "14000 ± 800", "unit": "ng/mL"}, {"measurement": "CC50 at 24 h", "setting": "[1]; HaCaT keratinocyte cells, DHA 0 mg/L", "result": "18000 ± 1700", "unit": "ng/mL"}, {"measurement": "CC50 at 24 h", "setting": "[1]; HaCaT keratinocyte cells, DHA 4 mg/L", "result": "19500 ± 1700", "unit": "ng/mL"}, {"measurement": "CC50 at 24 h", "setting": "[1]; HaCaT keratinocyte cells, DHA 8 mg/L", "result": "20500 ± 300", "unit": "ng/mL"}, {"measurement": "CC50 at 24 h", "setting": "[1]; HaCaT keratinocyte cells, DHA 16 mg/L", "result": "18100 ± 1600", "unit": "ng/mL"}, {"measurement": "CC50 at 24 h", "setting": "[1]; HeLa cells, DHA 0 mg/L", "result": "22500 ± 700", "unit": "ng/mL"}, {"measurement": "CC50 at 24 h", "setting": "[1]; HeLa cells, DHA 4 mg/L", "result": "24200 ± 3600", "unit": "ng/mL"}, {"measurement": "CC50 at 24 h", "setting": "[1]; HeLa cells, DHA 8 mg/L", "result": "21900 ± 1600", "unit": "ng/mL"}, {"measurement": "CC50 at 24 h", "setting": "[1]; HeLa cells, DHA 16 mg/L", "result": "21400 ± 1400", "unit": "ng/mL"}, {"measurement": "MIC", "setting": "[2]", "result": 250, "unit": "ng/mL"}, {"measurement": "combination effect", "setting": "[3]; MIC, +8 mg/L DHA", "result": "(Syn) (Synergy (Syn) was defined as an FICI≤0.5)"}, {"measurement": "MIC", "setting": "[3]; NCTC8325, +8 mg/L DHA", "result": 0.0019, "unit": "ng/mL"}, {"measurement": "MIC", "setting": "[3]; NCTC8325, agent alone", "result": 250, "unit": "ng/mL"}, {"measurement": "MBC", "setting": "[4]; +8 mg/L DHA", "result": 7.8, "unit": "ng/mL"}, {"measurement": "MIC", "setting": "[4]; +8 mg/L DHA", "result": 0.0038, "unit": "ng/mL"}, {"measurement": "MIC", "setting": "[4]; +8 mg/L DHA, MRSA USA300 (Table 4)", "result": 0.015, "unit": "ng/mL"}, {"measurement": "combination effect", "setting": "[4]; MIC, +8 mg/L DHA, MRSA USA300 (Table 4)", "result": "(Syn) (Synergy (Syn) was defined as an FICI≤0.5)"}, {"measurement": "MBC", "setting": "[4]; Staphylococcus aureus, MRSA / SC5005 / USA300, fatty acid 0 mg/L (SC5005 alone), read-out: MBC SC5005", "result": 2000, "unit": "ng/mL"}, {"measurement": "MIC", "setting": "[4]; Staphylococcus aureus, MRSA / SC5005 / USA300, fatty acid 0 mg/L (SC5005 alone), read-out: MIC SC5005", "result": 250, "unit": "ng/mL"}, {"measurement": "MBC", "setting": "[4]; Staphylococcus aureus, amide compound alone, read-out: MBC", "result": 2000, "unit": "ng/mL"}, {"measurement": "MIC", "setting": "[4]; Staphylococcus aureus, amide compound alone, read-out: MIC", "result": 250, "unit": "ng/mL"}, {"measurement": "MIC", "setting": "[4]; agent alone, MRSA USA300 (Table 4)", "result": 250, "unit": "ng/mL"}, {"measurement": "combination effect", "setting": "[5]; MIC, +8 mg/L DHA", "result": "(Syn) (Synergy (Syn) was defined as an FICI≤0.5)"}, {"measurement": "MIC", "setting": "[5]; +8 mg/L DHA", "result": 0.24, "unit": "ng/mL"}, {"measurement": "MIC", "setting": "[5]; agent alone", "result": 250, "unit": "ng/mL"}, {"measurement": "combination effect", "setting": "[6]; MIC, +8 mg/L DHA", "result": "(Syn) (Synergy (Syn) was defined as an FICI≤0.5)"}, {"measurement": "MIC", "setting": "[6]; +8 mg/L DHA", "result": 0.0019, "unit": "ng/mL"}, {"measurement": "MIC", "setting": "[6]; agent alone", "result": 250, "unit": "ng/mL"}, {"measurement": "combination effect", "setting": "[7]; MIC, +8 mg/L DHA", "result": "(Syn) (Synergy (Syn) was defined as an FICI≤0.5)"}, {"measurement": "MIC", "setting": "[7]; +8 mg/L DHA", "result": 0.0019, "unit": "ng/mL"}, {"measurement": "MIC", "setting": "[7]; agent alone", "result": 250, "unit": "ng/mL"}, {"measurement": "combination effect", "setting": "[8]; MIC, +8 mg/L DHA", "result": "(Syn) (Synergy (Syn) was defined as an FICI≤0.5)"}, {"measurement": "MIC", "setting": "[8]; +8 mg/L DHA", "result": 0.0019, "unit": "ng/mL"}, {"measurement": "MIC", "setting": "[8]; agent alone", "result": 250, "unit": "ng/mL"}, {"measurement": "combination effect", "setting": "[9]; MIC, +8 mg/L DHA", "result": "(Syn) (Synergy (Syn) was defined as an FICI≤0.5)"}, {"measurement": "MIC", "setting": "[9]; +8 mg/L DHA", "result": 0.061, "unit": "ng/mL"}, {"measurement": "MIC", "setting": "[9]; agent alone", "result": 250, "unit": "ng/mL"}, {"measurement": "time to eradication of persister cells", "setting": "[10]", "result": "≤ 24", "unit": "h"}, {"measurement": "time to eradication of persister cells", "setting": "[11]", "result": "≤ 24", "unit": "h"}]}
